The numbers were not newly measured in patent publication US20130115264A1, “IMPLANTABLE RASAGILINE COMPOSITIONS AND METHODS OF TREATMENT THEREOF” (Endo Pharmaceuticals Solutions Inc., priority 2011, published 2013), which cites them from elsewhere.

Where a name gives a salt, the structure may show the parent alone.

For data set [1] the following is noted: oral dosage form.
For data set [2] the following is noted: in vivo.
Another data set deals with MAO-B. To be noted: ex vivo, brain, liver and intestinal tissues.

Take `C#CCN[C@@H]1CCc2ccccc21` [rasagiline mesylate]: the oral bioavailability in data set [1] is listed as roughly 35%. With `C#CCN[C@@H]1CCc2ccccc21` [rasagiline, R-(+)-N-propargyl-1-aminoindan], the half-life entry in data set [2] is reported as “about 3 hours”. Besides, in the data set with MAO-B, the MAO-B inhibition entry is “potent, irreversible MAO-B selective inhibitor”.
